The results in this text go back to EP4603105A1, “PHARMACEUTICAL COMPOSITION CONTAINING CYCLIC COMPOUND HAVING SELECTIVE KRAS INHIBITORY EFFECT AGAINST HRAS AND NRAS” (CHUGAI SEIYAKU KABUSHIKI KAISHA, priority 2022, dated 2024).

In assay [1] the test system is human lung cancer strain NCI-H441. In words: NCI-H441 cell proliferation inhibitory activity (CellTiter-Glo, 4 days). It counts as cell-based. The conditions noted are these: NCI-H441 cells, 4 days, read-out: NCl-H441 IC50. Summed up: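 Proliferation was scored by […] measured after the reagent was added to cultures kept at 37°C in 5% carbon dioxide.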
For assay [2], the target named is HRAS wild-type protein (Homo sapiens, UniProt P01112). In words: Binding to HRAS by surface plasmon resonance (SPR), KD and KD ratio to KRAS. Conditions: ratio of KD for HRAS wild-type protein to KD for KRAS. A digest of the protocol: (§1)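 Compound binding is evaluated by SPR single-cycle kinetics, with concentrations added intermittently from low to high for 75 s each. Target surfaces carry GDP-loaded biotinylated Avi-RAS at about 100–300 RU, regenerated after each cycle; temperature 30°C. A 1:1 binding model gives KD.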
Chain of HRAS wild-type protein (P01112 whole entry): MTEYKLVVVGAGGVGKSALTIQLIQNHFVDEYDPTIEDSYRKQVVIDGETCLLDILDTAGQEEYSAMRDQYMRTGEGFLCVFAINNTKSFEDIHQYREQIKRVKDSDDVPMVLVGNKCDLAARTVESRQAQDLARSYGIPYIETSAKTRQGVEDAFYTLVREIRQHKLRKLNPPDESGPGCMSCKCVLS

For assay [3], the target named is GDP-bound KRAS wild-type protein (Homo sapiens, UniProt P01116). The experiment in a line: Binding to KRAS by surface plasmon resonance (SPR), dissociation constant KD. The conditions noted are these: Single Cycle Kinetics. Summed up: as §1
Chain of GDP-bound KRAS wild-type protein (P01116 1-188 isoform P01116-2): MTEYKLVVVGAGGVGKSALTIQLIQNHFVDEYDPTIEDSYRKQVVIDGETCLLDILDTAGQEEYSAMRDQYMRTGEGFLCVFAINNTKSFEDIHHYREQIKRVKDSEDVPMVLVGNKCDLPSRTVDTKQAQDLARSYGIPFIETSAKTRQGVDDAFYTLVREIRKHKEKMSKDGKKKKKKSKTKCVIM
The target of assay [4] is GDP-bound NRAS wild-type protein (Homo sapiens, UniProt P01111). In words: Binding to NRAS by surface plasmon resonance (SPR), KD and KD ratio to KRAS. The conditions noted are these: ratio of KD for GDP-bound NRAS wild-type protein to KD for KRAS. A digest of the protocol: as §1
Chain of GDP-bound NRAS wild-type protein (P01111 whole entry): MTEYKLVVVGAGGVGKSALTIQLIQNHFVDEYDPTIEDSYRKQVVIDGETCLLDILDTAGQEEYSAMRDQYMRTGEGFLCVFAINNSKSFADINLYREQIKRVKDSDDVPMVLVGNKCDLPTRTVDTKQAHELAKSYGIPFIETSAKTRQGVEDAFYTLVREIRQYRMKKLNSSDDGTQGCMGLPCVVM

As to `CCCN(C)C(=O)[C@@H]1CC(=O)N(C)[C@@H](CC(C)C)C(=O)N[C@@H]([C@@H](C)CC)C(=O)N(C)CC(=O)N(C)[C@H]2C/C=C\CCN(C2=O)[C@@H](Cc2ccc(C(F)(F)F)cc2)C(=O)N(C)CC(=O)N[C@@H](CCc2cc(F)c(C(F)(F)F)c(F)c2)C(=O)N2C[C@H](OCC)C[C@H]2C(=O)N[C@]2(C[C@H](OC)C2)C(=O)N(C)[C@@H](C2CCCC2)C(=O)N1C` [PP3353], in assay [1], the IC50 amounted to 14.1 nM. Also, the “HRAS /KRAS” value in assay [2] is “A (a compound having 10 or more and less than 20 is denoted as A)”. Also, in assay [3], the Kd came to 0.17 nM. Besides, in assay [4], the “NRAS /KRAS” value was “A (a compound having 10 or more and less than 20 is denoted as A)”.
Consider `CCCN(C)C(=O)[C@@H]1CC(=O)N(C)[C@@H](CC(C)C)C(=O)N[C@@H]([C@@H](C)CC)C(=O)N2CCC[C@H]2C(=O)N(C)[C@H]2C/C=C\CCN(C2=O)[C@@H](Cc2ccc(C(F)(F)F)cc2)C(=O)N(C)CC(=O)N[C@@H](CCc2cc(F)c(C(F)(F)F)c(F)c2)C(=O)N2C[C@H](OCC)C[C@H]2C(=O)N[C@]2(C[C@@H](OC)C2)C(=O)N(C)[C@@H](C2CCCC2)C(=O)N1C` [PP3354], for which the IC50 in assay [1] was determined as 58.5 nM. The “HRAS /KRAS” value in assay [2] is “A (a compound having 10 or more and less than 20 is denoted as A)”. This molecule also had a Kd in assay [3] of 1.4 nM. The “NRAS /KRAS” value in assay [4] is “A (a compound having 10 or more and less than 20 is denoted as A)”.
Turning to `CCCN(C)C(=O)[C@@H]1CC(=O)N(C)[C@@H](CC(C)C)C(=O)N[C@@H]([C@@H](C)CC)C(=O)N2CCC[C@H]2C(=O)N(C)[C@H]2C/C=C\CCN(C2=O)[C@@H](Cc2ccc(C(F)(F)F)cc2)C(=O)N(C)CC(=O)N[C@@H](CCc2cc(F)c(C(F)(F)F)c(F)c2)C(=O)N2C[C@H](OCC)C[C@H]2C(=O)N[C@]2(C[C@H](OC)C2)C(=O)N(C)[C@@H](C2CCCC2)C(=O)N1C` [PP3355], the IC50 in assay [1] came to 45.5 nM. Besides, the “HRAS /KRAS” value in assay [2] was “A (a compound having 10 or more and less than 20 is denoted as A)”. This molecule also came in with a Kd in assay [3] of 1.1 nM. Besides, the “NRAS /KRAS” value in assay [4] is “A (a compound having 10 or more and less than 20 is denoted as A)”.
`CCC[C@H]1C(=O)N[C@@H]([C@@H](C)CC)C(=O)N(C)CC(=O)N(C)[C@H]2C/C=C\CCN(C2=O)[C@@H](Cc2ccc(C(F)(F)F)cc2)C(=O)N(C)CC(=O)N[C@@H](CCc2cc(F)c(C(F)(F)F)c(F)c2)C(=O)N2CC3(CC3)C[C@H]2C(=O)N(C)C2(CCC2)C(=O)N(C)[C@@H](C(CC)CC)C(=O)N(C)[C@H](C(=O)N(C)C)CC(=O)N1C` [PP3357]: the IC50 in assay [1] came out at 8.4 nM. The “HRAS /KRAS” value in assay [2] is “A (a compound having 10 or more and less than 20 is denoted as A)”. The molecule further registered a Kd in assay [3] of 0.82 nM. Also, in assay [4], the “NRAS /KRAS” value is “A (a compound having 10 or more and less than 20 is denoted as A)”.
`CCC[C@H]1C(=O)N[C@@H]([C@@H](C)CC)C(=O)N(C)CC(=O)N(C)[C@H]2C/C=C\CCN(C2=O)[C@@H](Cc2ccc(C(F)(F)F)cc2)C(=O)N(C)CC(=O)N[C@@H](CCc2cc(F)c(C(F)(F)F)c(F)c2)C(=O)N2CC3(CC3)C[C@H]2C(=O)N(C)C2(CCC2)C(=O)N(C)[C@@H]([C@@H](C)CC)C(=O)N(C)[C@H](C(=O)N(C)C)CC(=O)N1C` [PP3358]: the IC50 in assay [1] stood at 3.1 nM. In addition, in assay [2], the “HRAS /KRAS” value was “A (a compound having 10 or more and less than 20 is denoted as A)”. Also, in assay [3], the Kd came out at 0.11 nM. Besides, the “NRAS /KRAS” value in assay [4] was “A (a compound having 10 or more and less than 20 is denoted as A)”.
`CCC[C@H]1C(=O)N[C@@H]([C@@H](C)CC)C(=O)N(C)CC(=O)N(C)[C@H]2C/C=C\CCN(C2=O)[C@@H](Cc2ccc(C(F)(F)F)cc2)C(=O)N(C)CC(=O)N[C@@H](CCc2ccc(C(F)(F)F)c(OC)c2)C(=O)N2CC3(CC3)C[C@H]2C(=O)N(C)C2(CCC2)C(=O)N(C)[C@@H](C(CC)CC)C(=O)N(C)[C@H](C(=O)N(C)C)CC(=O)N1C` [PP3361]: in assay [1], the IC50 was 4.7 nM. The “HRAS /KRAS” value in assay [2] was “A (a compound having 10 or more and less than 20 is denoted as A)”. In assay [3], binding was characterised by a dissociation constant (Kd) of 1.5 nM. Further, in assay [4], the “NRAS /KRAS” value was “A (a compound having 10 or more and less than 20 is denoted as A)”.
With `CCO[C@@H]1C[C@H]2C(=O)OC3(CCC3)C(=O)N(C)[C@@H](C3CCCC3)C(=O)N(C)[C@H](C(=O)N(C)C)CC(=O)N(C)[C@@H](CC(C)C)C(=O)N[C@@H]([C@@H](C)CC)C(=O)N3CCC[C@H]3C(=O)N(C)[C@H]3C/C=C\CCN(C3=O)[C@@H](Cc3ccc(C(F)(F)F)cc3)C(=O)N(C)CC(=O)N[C@@H](CCc3ccc(C(F)(F)F)c(OC)c3)C(=O)N2C1` [PP3362], the IC50 in assay [1] came out at 34.3 nM. For the same molecule, the “HRAS /KRAS” value in assay [2] is “A (a compound having 10 or more and less than 20 is denoted as A)”. Besides, the Kd in assay [3] worked out at 0.84 nM. Also, the “NRAS /KRAS” value in assay [4] is “A (a compound having 10 or more and less than 20 is denoted as A)”.
Turning to `CCO[C@@H]1C[C@H]2C(=O)OC3(CCC3)C(=O)N(C)[C@@H](C3CCCC3)C(=O)N(C)[C@H](C(=O)N(C)C)CC(=O)N(C)[C@@H](CC(C)C)C(=O)N[C@@H]([C@@H](C)CC)C(=O)N(C3CC3)CC(=O)N(C)[C@H]3C/C=C\CCN(C3=O)[C@@H](Cc3ccc(C(F)(F)F)cc3)C(=O)N(C)CC(=O)N[C@@H](CCc3ccc(C(F)(F)F)c(OC)c3)C(=O)N2C1` [PP3363], in assay [1], the IC50 was found to be 24.8 nM. In assay [2], the “HRAS /KRAS” value was “B (a compound having 3 or more and less than 10 is denoted as B)”. Moreover, the Kd in assay [3] is 1.8 nM. In assay [4], the “NRAS /KRAS” value is “A (a compound having 10 or more and less than 20 is denoted as A)”.
On to `CCO[C@@H]1C[C@H]2C(=O)OC3(CCC3)C(=O)N(C)[C@@H](C3CCCC3)C(=O)N(C)[C@H](C(=O)N(C)C)CC(=O)N(C)[C@@H](CC(C)C)C(=O)N[C@@H]([C@@H](C)CC)C(=O)N(C)CC(=O)N(C)[C@H]3C/C=C\CCN(C3=O)[C@@H](Cc3ccc(C(F)(F)F)cc3)C(=O)N(C)CC(=O)N[C@@H](CCc3ccc(C(F)(F)F)c(OC)c3)C(=O)N2C1` [PP3364], for which the IC50 in assay [1] worked out at 8.2 nM. Besides, the “HRAS /KRAS” value in assay [2] is “A (a compound having 10 or more and less than 20 is denoted as A)”. In assay [3], this molecule came in with a Kd of 0.16 nM. In addition, in assay [4], the “NRAS /KRAS” value was “A (a compound having 10 or more and less than 20 is denoted as A)”.
For the molecule `CCCC[C@H]1C(=O)N[C@@H]([C@@H](C)CC)C(=O)N2CCC[C@H]2C(=O)N(C)[C@H]2C/C=C\CCN(C2=O)[C@@H](Cc2ccc(C(F)(F)F)cc2)C(=O)N(C)CC(=O)N[C@@H](CCc2ccc(C(F)(F)F)c(OC)c2)C(=O)N2C[C@H](OCC)C[C@H]2C(=O)OC2(CCC2)C(=O)N(C)[C@@H](C2CCCC2)C(=O)N(C)[C@H](C(=O)N(C)C)CC(=O)N1C` [PP3365], the IC50 in assay [1] was 19.4 nM. Further, in assay [2], the “HRAS /KRAS” value is “A (a compound having 10 or more and less than 20 is denoted as A)”. In assay [3], this molecule returned a Kd of 0.65 nM. The “NRAS /KRAS” value in assay [4] is recorded as “AA (a compound having 20 or more is denoted as AA)”.
Turning to `CCCC[C@H]1C(=O)N[C@@H]([C@@H](C)CC)C(=O)N(C2CC2)CC(=O)N(C)[C@H]2C/C=C\CCN(C2=O)[C@@H](Cc2ccc(C(F)(F)F)cc2)C(=O)N(C)CC(=O)N[C@@H](CCc2ccc(C(F)(F)F)c(OC)c2)C(=O)N2C[C@H](OCC)C[C@H]2C(=O)OC2(CCC2)C(=O)N(C)[C@@H](C2CCCC2)C(=O)N(C)[C@H](C(=O)N(C)C)CC(=O)N1C` [PP3366], the IC50 in assay [1] was found to be 34.3 nM. In addition, the “HRAS /KRAS” value in assay [2] is “A (a compound having 10 or more and less than 20 is denoted as A)”. The equilibrium dissociation constant (Kd) in assay [3] turned out to be 1.1 nM. For the same molecule, the “NRAS /KRAS” value in assay [4] was “A (a compound having 10 or more and less than 20 is denoted as A)”.
Consider `CCCC[C@H]1C(=O)N[C@@H]([C@@H](C)CC)C(=O)N(C)CC(=O)N(C)[C@H]2C/C=C\CCN(C2=O)[C@@H](Cc2ccc(C(F)(F)F)cc2)C(=O)N(C)CC(=O)N[C@@H](CCc2ccc(C(F)(F)F)c(OC)c2)C(=O)N2C[C@H](OCC)C[C@H]2C(=O)OC2(CCC2)C(=O)N(C)[C@@H](C2CCCC2)C(=O)N(C)[C@H](C(=O)N(C)C)CC(=O)N1C` [PP3367], for which the IC50 in assay [1] came to 8.5 nM. Moreover, the “HRAS /KRAS” value in assay [2] was “A (a compound having 10 or more and less than 20 is denoted as A)”. For the same molecule, the Kd in assay [3] amounted to 0.18 nM. Also, the “NRAS /KRAS” value in assay [4] was “A (a compound having 10 or more and less than 20 is denoted as A)”.
On to `CCC[C@H]1C(=O)N[C@@H]([C@@H](C)CC)C(=O)N(C2CC2)CC(=O)N(C)[C@H]2C/C=C\CCN(C2=O)[C@@H](Cc2ccc(C(F)(F)F)cc2)C(=O)N(C)CC(=O)N[C@@H](CCc2ccc(C(F)(F)F)c(OC)c2)C(=O)N2C[C@H](OCC)C[C@H]2C(=O)OC2(CCC2)C(=O)N(C)[C@@H](C2CCCC2)C(=O)N(C)[C@H](C(=O)N(C)C)CC(=O)N1C` [PP3369], for which the IC50 in assay [1] was determined as 9.1 nM. In addition, the “HRAS /KRAS” value in assay [2] was “A (a compound having 10 or more and less than 20 is denoted as A)”. The same molecule showed a Kd in assay [3] of 0.86 nM. Besides, the “NRAS /KRAS” value in assay [4] is “A (a compound having 10 or more and less than 20 is denoted as A)”.
As for `CCC[C@H]1C(=O)N[C@@H]([C@@H](C)CC)C(=O)N(C)CC(=O)N(C)[C@H]2C/C=C\CCN(C2=O)[C@@H](Cc2ccc(C(F)(F)F)cc2)C(=O)N(C)CC(=O)N[C@@H](CCc2ccc(C(F)(F)F)c(OC)c2)C(=O)N2C[C@H](OCC)C[C@H]2C(=O)OC2(CCC2)C(=O)N(C)[C@@H](C2CCCC2)C(=O)N(C)[C@H](C(=O)N(C)C)CC(=O)N1C` [PP3370], the IC50 in assay [1] stood at 6.8 nM. Further, the “HRAS /KRAS” value in assay [2] is “B (a compound having 3 or more and less than 10 is denoted as B)”. Also, the Kd in assay [3] is 0.14 nM. For the same molecule, the “NRAS /KRAS” value in assay [4] was “A (a compound having 10 or more and less than 20 is denoted as A)”.
